From ChEMBL document CHEMBL4507268 (2021)

What was measured:
Settings in all cases: Compound concentration 1.0 uM
[1] = biological target: T1, Serine/threonine-protein kinase Nek11 (Homo sapiens) (UniProt Q8NG66)
T1 sequence (whole entry): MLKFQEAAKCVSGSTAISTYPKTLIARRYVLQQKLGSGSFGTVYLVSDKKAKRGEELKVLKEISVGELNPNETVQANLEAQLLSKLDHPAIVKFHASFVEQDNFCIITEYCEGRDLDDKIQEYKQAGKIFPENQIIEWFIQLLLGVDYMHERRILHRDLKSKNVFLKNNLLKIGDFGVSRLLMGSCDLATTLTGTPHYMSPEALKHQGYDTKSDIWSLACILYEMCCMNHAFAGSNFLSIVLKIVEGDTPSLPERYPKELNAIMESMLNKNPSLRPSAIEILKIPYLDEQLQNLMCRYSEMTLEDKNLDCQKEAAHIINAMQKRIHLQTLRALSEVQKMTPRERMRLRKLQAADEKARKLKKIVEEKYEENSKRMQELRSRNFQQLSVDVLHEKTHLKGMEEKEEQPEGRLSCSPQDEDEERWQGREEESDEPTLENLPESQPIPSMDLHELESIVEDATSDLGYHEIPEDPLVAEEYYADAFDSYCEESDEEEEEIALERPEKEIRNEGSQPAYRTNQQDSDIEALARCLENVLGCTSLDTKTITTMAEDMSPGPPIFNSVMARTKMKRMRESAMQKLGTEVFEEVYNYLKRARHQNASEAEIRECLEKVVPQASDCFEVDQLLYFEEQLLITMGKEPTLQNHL

[2] = biological target: T2, Serine/threonine-protein kinase 17A (Homo sapiens) (UniProt Q9UEE5)
T2 sequence (whole entry): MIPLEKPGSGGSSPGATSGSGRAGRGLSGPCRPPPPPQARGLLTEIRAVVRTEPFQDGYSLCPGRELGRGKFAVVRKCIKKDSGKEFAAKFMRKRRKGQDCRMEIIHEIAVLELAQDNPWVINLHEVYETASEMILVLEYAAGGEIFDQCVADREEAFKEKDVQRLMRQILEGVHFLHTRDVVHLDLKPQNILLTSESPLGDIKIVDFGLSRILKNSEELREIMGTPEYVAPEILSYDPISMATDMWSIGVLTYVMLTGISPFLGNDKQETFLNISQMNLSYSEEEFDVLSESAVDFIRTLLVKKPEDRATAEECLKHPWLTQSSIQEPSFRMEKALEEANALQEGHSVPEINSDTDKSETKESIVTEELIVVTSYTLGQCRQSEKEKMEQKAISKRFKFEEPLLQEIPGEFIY

[3] = biological target: Insulin-like growth factor 1 receptor (Homo sapiens) (UniProt P08069)
Sequence of Insulin-like growth factor 1 receptor (Homo sapiens) (P08069 31-736 limits assumed): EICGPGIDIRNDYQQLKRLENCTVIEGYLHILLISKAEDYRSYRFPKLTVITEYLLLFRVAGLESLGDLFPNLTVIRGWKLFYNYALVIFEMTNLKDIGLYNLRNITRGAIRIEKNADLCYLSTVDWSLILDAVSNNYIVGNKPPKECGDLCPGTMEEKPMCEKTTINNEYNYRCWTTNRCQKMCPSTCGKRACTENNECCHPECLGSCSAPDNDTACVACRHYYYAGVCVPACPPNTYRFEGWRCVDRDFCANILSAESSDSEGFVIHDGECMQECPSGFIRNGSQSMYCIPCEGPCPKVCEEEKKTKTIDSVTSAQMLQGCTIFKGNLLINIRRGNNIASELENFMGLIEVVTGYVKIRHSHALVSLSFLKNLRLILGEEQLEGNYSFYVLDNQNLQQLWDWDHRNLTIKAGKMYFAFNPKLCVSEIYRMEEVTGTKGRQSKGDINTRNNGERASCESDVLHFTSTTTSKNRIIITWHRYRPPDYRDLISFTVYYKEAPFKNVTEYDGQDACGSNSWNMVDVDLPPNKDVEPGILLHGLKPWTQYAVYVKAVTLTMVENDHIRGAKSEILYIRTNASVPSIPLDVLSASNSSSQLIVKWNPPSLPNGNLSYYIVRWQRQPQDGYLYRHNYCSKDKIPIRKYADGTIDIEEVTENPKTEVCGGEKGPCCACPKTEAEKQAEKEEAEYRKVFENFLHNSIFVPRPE
Sequence of Insulin-like growth factor 1 receptor (Homo sapiens) (P08069 741-1367 limits assumed): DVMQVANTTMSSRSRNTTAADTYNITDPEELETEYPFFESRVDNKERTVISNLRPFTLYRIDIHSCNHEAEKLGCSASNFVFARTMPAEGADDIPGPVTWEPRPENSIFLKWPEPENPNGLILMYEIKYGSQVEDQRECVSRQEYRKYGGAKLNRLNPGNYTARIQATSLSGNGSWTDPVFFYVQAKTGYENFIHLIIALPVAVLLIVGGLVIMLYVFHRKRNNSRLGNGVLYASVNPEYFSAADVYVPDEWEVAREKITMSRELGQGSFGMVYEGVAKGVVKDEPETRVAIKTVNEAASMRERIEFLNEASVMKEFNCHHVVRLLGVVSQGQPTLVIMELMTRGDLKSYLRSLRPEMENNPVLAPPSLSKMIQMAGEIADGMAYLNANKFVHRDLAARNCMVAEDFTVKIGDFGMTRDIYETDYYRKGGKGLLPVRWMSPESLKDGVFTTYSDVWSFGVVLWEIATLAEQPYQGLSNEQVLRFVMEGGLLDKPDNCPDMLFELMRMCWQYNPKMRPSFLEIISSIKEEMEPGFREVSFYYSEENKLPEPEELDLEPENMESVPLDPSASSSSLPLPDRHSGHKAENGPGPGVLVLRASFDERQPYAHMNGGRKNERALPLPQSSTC

[4] = biological target: T3, Serine/threonine-protein kinase DCLK2 (Homo sapiens) (UniProt Q8N568)
T3 sequence (whole entry): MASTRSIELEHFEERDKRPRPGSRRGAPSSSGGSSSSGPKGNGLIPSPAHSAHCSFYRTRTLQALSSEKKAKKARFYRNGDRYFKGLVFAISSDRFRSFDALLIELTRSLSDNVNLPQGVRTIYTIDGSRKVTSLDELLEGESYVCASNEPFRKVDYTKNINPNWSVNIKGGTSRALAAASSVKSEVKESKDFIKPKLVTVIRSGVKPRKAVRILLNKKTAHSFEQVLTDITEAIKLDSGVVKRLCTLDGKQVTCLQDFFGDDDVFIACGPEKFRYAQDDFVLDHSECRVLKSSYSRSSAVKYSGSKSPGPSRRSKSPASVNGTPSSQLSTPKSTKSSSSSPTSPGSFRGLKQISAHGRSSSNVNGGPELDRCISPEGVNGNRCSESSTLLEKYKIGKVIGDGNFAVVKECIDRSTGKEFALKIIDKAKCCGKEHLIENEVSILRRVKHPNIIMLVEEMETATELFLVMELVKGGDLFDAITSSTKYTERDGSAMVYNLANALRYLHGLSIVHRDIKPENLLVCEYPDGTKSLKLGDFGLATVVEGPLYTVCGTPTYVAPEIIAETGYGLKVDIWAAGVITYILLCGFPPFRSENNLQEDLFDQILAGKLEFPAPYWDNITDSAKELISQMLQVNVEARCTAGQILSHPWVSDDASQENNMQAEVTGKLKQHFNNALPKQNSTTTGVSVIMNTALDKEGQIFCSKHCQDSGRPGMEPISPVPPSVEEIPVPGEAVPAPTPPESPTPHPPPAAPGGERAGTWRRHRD

[5] = biological target: Serine/threonine-protein kinase PLK3 (Homo sapiens) (UniProt Q9H4B4)
Sequence of Serine/threonine-protein kinase PLK3 (Homo sapiens) (Q9H4B4 whole entry, looked up): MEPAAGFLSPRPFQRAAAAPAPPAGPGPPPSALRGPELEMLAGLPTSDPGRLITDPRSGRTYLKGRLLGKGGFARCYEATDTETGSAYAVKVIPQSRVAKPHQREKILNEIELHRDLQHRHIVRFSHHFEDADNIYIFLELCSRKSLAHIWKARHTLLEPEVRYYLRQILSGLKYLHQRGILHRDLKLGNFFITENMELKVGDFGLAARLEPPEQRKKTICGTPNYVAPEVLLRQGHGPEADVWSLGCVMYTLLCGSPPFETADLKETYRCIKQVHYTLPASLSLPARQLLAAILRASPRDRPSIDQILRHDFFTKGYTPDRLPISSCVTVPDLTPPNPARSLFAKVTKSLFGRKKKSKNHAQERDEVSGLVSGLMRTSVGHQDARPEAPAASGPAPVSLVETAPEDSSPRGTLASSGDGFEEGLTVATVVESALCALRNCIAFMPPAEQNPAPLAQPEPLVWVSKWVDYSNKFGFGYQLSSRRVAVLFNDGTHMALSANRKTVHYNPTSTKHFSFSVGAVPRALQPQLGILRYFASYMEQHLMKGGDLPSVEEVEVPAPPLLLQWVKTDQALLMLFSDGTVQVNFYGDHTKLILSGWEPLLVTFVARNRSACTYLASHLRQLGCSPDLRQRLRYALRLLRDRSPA

[6] = biological target: Phosphatidylinositol 4-phosphate 5-kinase type-1 alpha (Homo sapiens) (UniProt Q99755)
Sequence of Phosphatidylinositol 4-phosphate 5-kinase type-1 alpha (Homo sapiens) (Q99755 whole entry): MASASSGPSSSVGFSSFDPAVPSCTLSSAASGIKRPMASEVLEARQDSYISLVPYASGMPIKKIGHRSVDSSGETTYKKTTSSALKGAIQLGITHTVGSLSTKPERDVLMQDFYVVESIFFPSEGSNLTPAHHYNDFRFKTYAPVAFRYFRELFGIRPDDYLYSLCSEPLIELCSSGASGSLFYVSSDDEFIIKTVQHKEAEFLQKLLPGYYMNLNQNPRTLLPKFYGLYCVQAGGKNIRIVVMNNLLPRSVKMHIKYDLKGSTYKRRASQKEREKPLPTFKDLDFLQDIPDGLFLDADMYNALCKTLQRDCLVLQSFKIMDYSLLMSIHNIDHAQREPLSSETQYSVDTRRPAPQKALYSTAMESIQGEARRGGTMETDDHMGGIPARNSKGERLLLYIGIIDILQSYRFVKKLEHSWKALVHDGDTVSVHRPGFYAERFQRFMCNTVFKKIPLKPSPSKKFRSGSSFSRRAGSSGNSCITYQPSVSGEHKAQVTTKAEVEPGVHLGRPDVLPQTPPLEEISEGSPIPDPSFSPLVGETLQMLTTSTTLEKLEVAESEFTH

[7] = biological target: Ribosomal protein S6 kinase beta-1 (Homo sapiens) (UniProt P23443)
Sequence of Ribosomal protein S6 kinase beta-1 (Homo sapiens) (P23443 whole entry, looked up): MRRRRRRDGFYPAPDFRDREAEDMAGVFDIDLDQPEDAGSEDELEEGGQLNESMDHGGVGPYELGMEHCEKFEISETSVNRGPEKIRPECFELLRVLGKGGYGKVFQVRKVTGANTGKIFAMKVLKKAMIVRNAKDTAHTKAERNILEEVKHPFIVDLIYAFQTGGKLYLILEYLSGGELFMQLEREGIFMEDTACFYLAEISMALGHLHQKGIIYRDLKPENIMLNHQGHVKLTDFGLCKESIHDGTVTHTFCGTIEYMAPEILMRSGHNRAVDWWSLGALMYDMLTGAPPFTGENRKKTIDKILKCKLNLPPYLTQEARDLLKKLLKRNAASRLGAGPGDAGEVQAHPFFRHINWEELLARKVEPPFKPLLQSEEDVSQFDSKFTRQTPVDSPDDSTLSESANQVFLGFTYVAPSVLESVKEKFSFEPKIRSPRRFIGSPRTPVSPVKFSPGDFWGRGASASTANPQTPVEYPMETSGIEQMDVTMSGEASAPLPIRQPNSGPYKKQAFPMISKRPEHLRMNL

[8] = biological target: Tribbles homolog 2 (Homo sapiens) (UniProt Q92519)
Sequence of Tribbles homolog 2 (Homo sapiens) (Q92519 whole entry): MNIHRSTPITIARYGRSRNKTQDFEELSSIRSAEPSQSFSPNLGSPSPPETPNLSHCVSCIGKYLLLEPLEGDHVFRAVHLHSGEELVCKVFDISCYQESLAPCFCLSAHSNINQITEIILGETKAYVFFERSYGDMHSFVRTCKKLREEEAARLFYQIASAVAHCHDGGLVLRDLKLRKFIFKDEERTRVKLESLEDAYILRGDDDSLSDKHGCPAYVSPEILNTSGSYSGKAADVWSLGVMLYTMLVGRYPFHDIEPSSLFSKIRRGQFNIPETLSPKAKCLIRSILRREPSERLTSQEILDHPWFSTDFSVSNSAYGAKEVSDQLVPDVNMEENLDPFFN

[9] = biological target: Ephrin type-A receptor 5 (Homo sapiens) (UniProt P54756)
[10] = biological target: Macrophage colony-stimulating factor 1 receptor (Homo sapiens) (UniProt P07333)
Sequence of Macrophage colony-stimulating factor 1 receptor (Homo sapiens) (P07333 whole entry): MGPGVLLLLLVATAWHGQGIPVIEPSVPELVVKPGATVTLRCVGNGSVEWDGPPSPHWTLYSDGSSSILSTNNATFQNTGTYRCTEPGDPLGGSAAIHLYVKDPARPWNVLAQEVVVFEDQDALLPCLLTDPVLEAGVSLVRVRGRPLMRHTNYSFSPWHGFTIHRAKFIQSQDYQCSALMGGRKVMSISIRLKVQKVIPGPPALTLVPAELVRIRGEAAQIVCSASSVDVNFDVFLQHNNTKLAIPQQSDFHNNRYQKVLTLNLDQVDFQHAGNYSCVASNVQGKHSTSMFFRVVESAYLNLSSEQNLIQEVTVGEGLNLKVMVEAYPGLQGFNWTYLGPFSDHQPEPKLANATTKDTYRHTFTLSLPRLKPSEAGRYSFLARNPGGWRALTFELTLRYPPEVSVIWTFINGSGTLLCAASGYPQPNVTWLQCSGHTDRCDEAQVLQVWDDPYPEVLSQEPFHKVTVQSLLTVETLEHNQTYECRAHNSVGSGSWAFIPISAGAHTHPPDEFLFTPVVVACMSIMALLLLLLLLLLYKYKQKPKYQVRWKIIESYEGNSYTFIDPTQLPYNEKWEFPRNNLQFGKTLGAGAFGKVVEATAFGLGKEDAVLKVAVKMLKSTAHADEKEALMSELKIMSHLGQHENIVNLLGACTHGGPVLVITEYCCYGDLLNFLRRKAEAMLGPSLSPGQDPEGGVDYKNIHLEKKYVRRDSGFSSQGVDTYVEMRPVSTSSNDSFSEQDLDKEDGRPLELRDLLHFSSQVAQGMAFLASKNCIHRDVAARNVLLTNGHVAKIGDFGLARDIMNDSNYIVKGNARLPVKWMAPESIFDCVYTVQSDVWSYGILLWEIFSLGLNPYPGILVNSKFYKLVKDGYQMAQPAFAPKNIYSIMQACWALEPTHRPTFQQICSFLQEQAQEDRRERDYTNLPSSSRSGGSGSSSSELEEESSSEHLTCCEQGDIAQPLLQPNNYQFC

Measured: % residual kinase activity

CN1CCN(c2cnc3c(C4CCN(C(=O)c5ccc(OC(F)(F)F)cc5N)CC4)ncnc3c2)CC1 [BAY-885]
inactive: [1] 104% | [2] 85% | [3] 107% | [4] 90% | [5] 107% | [6] 98% | [7] 118% | [8] 109% | [9] 57% | [10] 118%
